According to patent US9856240B2, “Compounds that modulate intracellular calcium” (CalciMedica, Inc., priority 2011, dated 2018):
pIC50: −log10 of the molar value.

What was measured:
[1] = molecular target: T1, recombinant human STIM1 and Orai1 (HEK-293 cells) (Homo sapiens, UniProt Q96D31); assay: Fluorescence-based assay of store-operated calcium entry in Orai1/STIM1 stable cells; format: cell-based; set-up: key to Orai1/STIM1 (IC50, μmol): A < 0.6 μmol; 0.6 μmol ≦ B ≦ 1.2 μmol; C > 1.2 μmol; — = no fit; conditions: for pIC50: FLIPR fluo-4, read-out: Orai1/STIM1 (IC50, μmol); for Orai1/STIM1 (IC50, μmol): FLIPR fluo-4
T1 construct: expressed in transfected cells; host or cells: HEK-293 cells stably expressing both proteins
Protocol: A. Fluorescence-Based Assay of Store-Operated Calcium Entry in Orai1/STIM1 Stable Cells.
Cells stably expressing recombinant human STIM1 and Orai1 are generated by transfecting a human Orai1 expression plasmid (pcDNA3.1-Orai1-cmyc) into HEK-293 cells stably overexpressing human STIM1 (Roos et al. 2005 JCB 169(3): 435-445). Colonies of cells stably expressing both STIM1 and Orai1 proteins are selected and then subcloned by limiting dilution. Cells were cultured at 37° C./6% CO2 in complete medium with 10% FBS and appropriate selection markers.
The day prior to performing the assay Orai1/STIM1 stable cells are plated in 50 μL of complete medium at 90-95% confluence in a 384 well plate. Cells are grown at 37° C./6% CO2 overnight. On the day of the assay, 1.5 μM fluo-4-AM (Invitrogen) in complete medium is added to the cells, which are then incubated for 1 hour at RT. Cells are washed once in Ca^2+-free HBSS (Hank's buffered saline solution) and 35 μl of Ca^2+-free HBSS is added to each well. Test compounds are added to wells in a 10 μL Ca^2+-free HBSS solution, prepared at 4.5× the desired final concentration, and incubated for 30 minutes at RT. The initial baseline fluorescence signal is then measured with a FLIPR^384 (Molecular Devices) plate reader. Calcium entry is initiated by adding 5 μl of 10× CaCl2 (10 mM) in HBSS, and changes in cellular fluorescence are measured with the FLIPR^384 plate reader. In each well, the magnitude of the fluorescence signal as a result of calcium entry into the cell is determined by calculating the difference between the peak fluorescence signal measured after calcium addition and the initial baseline fluorescence signal (designated Peak-Basal). IC50 values are typically calculated as the concentration that inhibited 50% of the Peak-Basal signal (Table A).

[2] = test system: store-operated calcium entry in RBL-2H3 cells; assay: Fluorescence-based assay of store-operated calcium entry in RBL-2H3 cells; format: cell-based; conditions: Rattus norvegicus, thapsigargin, FLIPR Fluo-4, read-out: RBL-2H3 (IC50, μmol)
Protocol: B. Fluorescence-Based Assay of Store-Operated Calcium Entry in RBL-2H3 Cells.
RBL-2H3 cells are obtained from ATCC and maintained in complete medium with 10% FBS at 37° C./6% CO2.
The day prior to performing the assay, RBL-2H3 cells are plated in 50 μL of complete medium in a 384 well plate. Cells are grown at 37° C./6% CO2 overnight and grow to 50-60% confluence by the next day. On the assay day, 1.5 μM Fluo-4-AM dye (Invitrogen) in complete medium is added and incubated for 1 hour at RT. Cells are washed twice in Ca^2+-free HBSS buffer and 35 μL Ca^2+-free HBSS buffer is added to each well. 10 μL of a test compound prepared in a Ca^2+-free HBSS solution at 4.5× of the desired concentration is added to a well and incubated for 5 minutes at RT. 10 μL of thapsigargin prepared in a Ca^2+-free HBSS solution at 5.5× of the desired concentration (5.5 uM) is added to each well and incubated for an additional 25 minutes. The initial baseline fluorescence signal is measured with a FLIPR^384 (Molecular Devices) plate reader. 5 μL of 12× calcium in HBSS (12 mM) is added and changes in cellular fluorescence are measured with the FLIPR^384 plate reader. In each well, the change in the fluorescent signal as a function of time due to calcium entry into the cell is determined by calculating the difference between the fluorescent signal measured 7 seconds after calcium addition and the initial baseline fluorescence signal at time zero (t=0). This parameter is designated Upslope. The IC50 value is calculated as the concentration at which 50% of the Upslope is inhibited.

T1 sequence (Q96D31 whole entry): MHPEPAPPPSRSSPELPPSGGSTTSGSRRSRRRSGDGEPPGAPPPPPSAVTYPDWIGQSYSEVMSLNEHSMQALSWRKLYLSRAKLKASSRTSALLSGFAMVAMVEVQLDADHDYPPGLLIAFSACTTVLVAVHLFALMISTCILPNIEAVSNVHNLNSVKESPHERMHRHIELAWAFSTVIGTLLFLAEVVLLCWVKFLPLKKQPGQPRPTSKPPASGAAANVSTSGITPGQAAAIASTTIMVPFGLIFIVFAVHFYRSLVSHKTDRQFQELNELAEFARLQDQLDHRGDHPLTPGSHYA

SMILES	pIC50 [1]	pIC50 [2]	Orai1/STIM1 (IC50, μmol) [1]
Cc1nocc1C(=O)Nc1ccc(-c2cc3c(cc2Cl)OC(F)(F)O3)cn1 [Example 18, N-(5-(6-chloro-2,2-difluorobenzo[d][1,3]dioxol-5-yl)pyridin-2-yl)-3-methylisoxazole-4-carboxamide]	> 6.22	> 6.22	
Cc1cnoc1C(=O)Nc1ccc(-c2cc3c(cc2Cl)OC(F)(F)O3)cn1 [Example 20, N-(5-(6-chloro-2,2-difluorobenzo[d][1,3]dioxol-5-yl)pyridin-2-yl)-4-methylisoxazole-5-carboxamide]	> 6.22	> 6.22	
Cn1nc(C(F)(F)F)c(Cl)c1C(=O)Nc1cnc(-c2cc3c(cc2Cl)OC(F)(F)O3)cn1 [Example 24, 4-chloro-N-(5-(6-chloro-2,2-difluorobenzo[d][1,3]dioxol-5-yl)pyrazin-2-yl)-1-methyl-3-(trifluoromethyl)-1H-pyrazole-5-carboxamide]		> 6.22	—
Cc1onc(C(=O)Nc2cnc(-c3cc4c(cc3Cl)OC(F)(F)O4)cn2)c1C [Example 25, N-(5-(6-chloro-2,2-difluorobenzo[d][1,3]dioxol-5-yl)pyrazin-2-yl)-4,5-dimethylisoxazole-3-carboxamide]	5.92 to 6.22	> 6.22	
Cc1cc(C(=O)Nc2cnc(-c3cc4c(cc3Cl)OC(F)(F)O4)cn2)n(C)n1 [Example 27, N-(5-(6-chloro-2,2-difluorobenzo[d][1,3]dioxol-5-yl)pyrazin-2-yl)-1,3-dimethyl-1H-pyrazole-5-carboxamide]	5.92 to 6.22	< 5.92	
Cn1ncc(Cl)c1C(=O)Nc1cnc(-c2cc3c(cc2Cl)OC(F)(F)O3)cn1 [Example 29, 4-chloro-N-(5-(6-chloro-2,2-difluorobenzo[d][1,3]dioxol-5-yl)pyrazin-2-yl)-1-methyl-1H-pyrazole-5-carboxamide]	> 6.22	> 6.22	
Cc1noc(C)c1C(=O)Nc1cnc(-c2cc3c(cc2Cl)OC(F)(F)O3)cn1 [Example 31, N-(5-(6-chloro-2,2-difluorobenzo[d][1,3]dioxol-5-yl)pyrazin-2-yl)-3,5-dimethylisoxazole-4-carboxamide]	5.92 to 6.22	> 6.22	
CCn1nccc1C(=O)Nc1cnc(-c2cc3c(cc2Cl)OC(F)(F)O3)cn1 [Example 32, N-(5-(6-chloro-2,2-difluorobenzo[d][1,3]dioxol-5-yl)pyrazin-2-yl)-1-ethyl-1H-pyrazole-5-carboxamide]	> 6.22	> 6.22	
O=C(Nc1cnc(-c2cc3c(cc2Cl)OC(F)(F)O3)cn1)c1ccnn1C(F)F [Example 33, N-(5-(6-chloro-2,2-difluorobenzo[d][1,3]dioxol-5-yl)pyrazin-2-yl)-1-(difluoromethyl)-1H-pyrazole-5-carboxamide]		> 6.22	—
Cc1cc2c(cc1-c1ccc(NC(=O)c3cccn3C)nc1)OC(F)(F)O2 [Example 34, N-(5-(2,2-difluoro-6-methylbenzo[d][1,3]dioxol-5-yl)pyridin-2-yl)-1-methyl-1H-pyrrole-2-carboxamide]	5.92 to 6.22	> 6.22	
Cc1cc2c(cc1-c1cnc(NC(=O)c3c(Cl)cnn3C)cn1)OC(F)(F)O2 [Example 35, 4-chloro-N-(5-(2,2-difluoro-6-methylbenzo[d][1,3]dioxol-5-yl)pyrazin-2-yl)-1-methyl-1H-pyrazole-5-carboxamide]	> 6.22	> 6.22	
Cc1cc2c(cc1-c1cnc(NC(=O)c3c(Cl)c(C(F)(F)F)nn3C)cn1)OC(F)(F)O2 [Example 37, 4-chloro-N-(5-(2,2-difluoro-6-methylbenzo[d][1,3]dioxol-5-yl)pyrazin-2-yl)-1-methyl-3-(trifluoromethyl)-1H-pyrazole-5-carboxamide]	5.92 to 6.22	> 6.22	
Cc1cc2c(cc1-c1cnc(NC(=O)c3c(C)noc3C)cn1)OC(F)(F)O2 [Example 38, N-(5-(2,2-difluoro-6-methylbenzo[d][1,3]dioxol-5-yl)pyrazin-2-yl)-3,5-dimethylisoxazole-4-carboxamide]	< 5.92	> 6.22	
Cn1nc(C(F)(F)F)cc1-c1cnc(NC(=O)c2c(Cl)cnn2C)cn1 [Example 39, 4-chloro-1-methyl-N-(5-(1-methyl-3-(trifluoromethyl)-1H-pyrazol-5-yl)pyrazin-2-yl)-1H-pyrazole-5-carboxamide]	< 5.92	< 5.92	
Cc1nn(C)c(C(=O)Nc2cnc(-c3cc(C(F)(F)F)nn3C)cn2)c1Cl [Example 40, 4-chloro-1,3-dimethyl-N-(5-(1-methyl-3-(trifluoromethyl)-1H-pyrazol-5-yl)pyrazin-2-yl)-1H-pyrazole-5-carboxamide]	< 5.92	< 5.92	
Cn1nc(C(F)(F)F)cc1-c1cnc(NC(=O)c2c(Cl)c(C(F)(F)F)nn2C)cn1 [Example 41, 4-chloro-1-methyl-N-(5-(1-methyl-3-(trifluoromethyl)-1H-pyrazol-5-yl)pyrazin-2-yl)-3-(trifluoromethyl)-1H-pyrazole-5-carboxamide]	< 5.92	< 5.92	
Cc1noc(C)c1C(=O)Nc1cnc(-c2cc(C(F)(F)F)nn2C)cn1 [Example 42, 3,5-dimethyl-N-(5-(1-methyl-3-(trifluoromethyl)-1H-pyrazol-5-yl)pyrazin-2-yl)isoxazole-4-carboxamide]	< 5.92	< 5.92	
O=C(Nc1ncc(Oc2ccccc2C(F)(F)F)s1)c1c(F)cccc1F [Example 43, (2,6-difluorophenyl)-N-{5-[2-(trifluoromethyl)phenoxy](1,3-thiazol-2-yl)}carboxamide]	< 5.92	5.92 to 6.22	
